Results on seven compounds are retold here after patent US9845319B2, “Amide substituted thiazoles as modulators of RORyt” (Janssen Pharmaceutica NV, priority 2014, dated 2017).

Assay [1] has as its target T1, human RORγt ligand binding domain (RORγt LBD) (Homo sapiens, UniProt P51449).
T1 construct: His-tag (N); TurboTEV protease cleavage site (ENLYFQG) (N); made in house; host or cells: E. coli (pHIS1, a modified pET expression vector)
T1 sequence (P51449 with tags, fused parts or gaps): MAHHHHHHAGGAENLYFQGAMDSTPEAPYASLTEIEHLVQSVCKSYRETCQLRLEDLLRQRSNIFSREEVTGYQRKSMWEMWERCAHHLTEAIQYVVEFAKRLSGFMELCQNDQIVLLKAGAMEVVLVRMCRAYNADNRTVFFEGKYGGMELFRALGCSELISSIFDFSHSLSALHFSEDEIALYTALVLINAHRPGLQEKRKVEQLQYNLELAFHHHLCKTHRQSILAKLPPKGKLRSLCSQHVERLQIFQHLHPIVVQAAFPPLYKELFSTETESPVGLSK
The assay is described as follows: RORγt ThermoFluor assay. The settings on record: estimated from thermal shift concentration response. The procedure, abridged: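 Thermal shift of RORγt LBD (0.065 mg/mL) with 60 μM 1,8-ANS in 100 mM Hepes pH 7.0, NaCl, GSH, 0.002% Tween-20, heated at 1° C/min. ANS fluorescence tracked versus temperature; ΔTm relative to DMSO wells. Compounds serially diluted 1:2 from 10 mM DMSO stock.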

The target of assay [2] is T2, full-length human RORγt (Homo sapiens, UniProt P51449).
T2 construct: expressed in transfected cells; host or cells: HEK293T, transiently transfected with pCMV-BD-ROR
T2 sequence (P51449 1-497 isoform P51449-2): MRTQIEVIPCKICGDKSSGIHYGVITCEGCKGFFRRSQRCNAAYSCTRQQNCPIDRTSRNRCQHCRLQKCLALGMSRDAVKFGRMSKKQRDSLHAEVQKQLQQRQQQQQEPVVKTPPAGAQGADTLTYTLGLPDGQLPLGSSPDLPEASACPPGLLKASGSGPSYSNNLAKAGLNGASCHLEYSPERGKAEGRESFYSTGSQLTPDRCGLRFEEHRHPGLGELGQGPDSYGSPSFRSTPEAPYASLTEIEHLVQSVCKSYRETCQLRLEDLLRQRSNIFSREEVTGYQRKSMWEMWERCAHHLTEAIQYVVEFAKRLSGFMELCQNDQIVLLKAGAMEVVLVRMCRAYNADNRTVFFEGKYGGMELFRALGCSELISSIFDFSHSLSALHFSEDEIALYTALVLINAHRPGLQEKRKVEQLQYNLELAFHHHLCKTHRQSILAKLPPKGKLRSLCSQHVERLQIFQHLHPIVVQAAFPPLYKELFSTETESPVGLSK
The assay is described as follows: RORγt (full-length human) Reporter Assay, Conditions A. Type of assay: cell-based. The settings on record: for IC50: HEK293T cells, GAL4-DBD-RORγt, luciferase, read-out: RORγt (FL) Reporter Assay A, IC50; for inhibition at 6 µM: read-out: RORγt (FL) Reporter Assay A, % inhibition @ 6 μM, 6 μM compound; for inhibition at 2 µM: read-out: RORγt (FL) Reporter Assay A, % inhibition (* at 2 μM), 2 μM compound concentration (footnote *). Summed up:
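Reporter cells lysed after 16–20 h compound exposure; firefly and Renilla luciferase luminescence measured. Firefly signal normalised to DMSO and saturating reference compound, then to Renilla; IC50 from normalised data versus concentration, percent inhibition relative to DMSO.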
Background: A reporter such as luciferase makes a cellular process visible.

Assay [3] concerns IL-17 production by CD4 T cells. The assay is described as follows: Human Th17 Assay. The settings on record: 72 h; IL-17 in supernatant, 3 days, human CD4+ T cells; read-out: Human Th17 Assay, IC50. Type of assay: cell-based. The protocol:
The human Th17 assay tests the effect of RORγt modulatory compounds on IL-17 production by CD4 T cells under conditions which favor Th17 differentiation. Total CD4^+ T cells were isolated from the peripheral blood mononuclear cells (PBMC) of healthy donors using a CD4^+ T cell isolation kit II, following the manufacturer's instructions (Miltenyi Biotec). […] 50 μL of compound at titrated concentrations in DMSO were added into each well at final DMSO concentration at 0.2%. Cells were incubated for 1 hour, then 50 μL of Th17 cell differentiation medium was added to each well. The final concentrations of antibodies and cytokines (R&D Systems) in differentiation medium were: 3×10^6/mL anti-CD3/CD28 beads (prepared using human T cell activation/expansion kit, Miltenyi Biotec), 10 μg/mL anti-IL4, 10 μg/mL anti-IFNγ, 10 ng/mL IL1β, 10 ng/mL IL23, 50 ng/mL IL6, 3 ng/mL TGFβ and 20 U/mL IL2. Cells were cultured at 37° C. and 5% CO2 for 3 days. Supernatants were collected and the accumulated IL-17 in culture was measured by using MULTI-SPOT® Cytokine Plate following manufacture's instruction (Meso Scale Discovery). The plate was read using Sector Imager 6000, and IL-17 concentration was extrapolated from the standard curve. The IC50s were determined by GraphPad.

The target of assay [4] is T2, full-length human RORγt. Briefly: RORγt (full-length human) Reporter Assay, Conditions B or C. Particulars: for IC50: HEK293T cells, GAL4-DBD-RORγt, luciferase, read-out: RORγt (FL) Reporter Assay B or C, IC50; for inhibition at 6 µM: read-out: RORγt (FL) Reporter Assay B or C, % inhibition @ 6 μM, 6 μM compound. Type of assay: cell-based. Here is the method: HEK293T cells were plated at 35,000 per well in 96-well plate in medium of DMEM with 10% FBS. […] After overnight (16 to 20 hours) incubation, media were removed and cells were lysed with 50 μL Glo Lysis Buffer (Promega) for 10-15 minutes followed by 10 minute incubation with 50 uL Dual Glo reagent (Promega) at room temperature. Firefly luciferase luminescence was measured using a BMG Pherastar plate reader. To each well, 50 uL Stop and Glo reagent was added and incubated for 10 minutes at room temperature. Renilla luminescence was measured using a BMG Pherastar plate reader. To calculate the effect of compounds on RORγt activity, firefly values were normalized against values of DMSO only and values of reference compound at saturating concentration, then further normalized against Renilla signals. IC50s were generated by plotting final Renilla normalized data against compound concentration and percent inhibition was calculated against DMSO control. […] HEK293T cells were plated at 8750 cells per well in 384-well plate in medium of DMEM with 10% FBS. […] After overnight (16 to 20 hours) incubation, media were removed and cells were lysed with 20 μL Glo Lysis Buffer (Promega) for 10-15 minutes followed by 10 minute incubation with 20 uL Dual Glo reagent (Promega) at room temperature. Firefly luciferase luminescence was measured using a BMG Pherastar plate reader. To each well, 20 uL Stop and Glo reagent was added and incubated for 10 minutes at room temperature. Renilla luminescence was measured using a BMG Pherastar plate reader. To calculate the effect of compounds on RORγt activity, firefly values were normalized against values of DMSO only and values of reference compound at saturating concentration, then further normalized against Renilla signals. IC50s were generated by plotting final Renilla normalized data against compound concentration and percent inhibition was calculated against DMSO control.

Regarding `CCN(CC)C(=O)c1nc(-c2nnc(CC(C)(C)C(=O)O)o2)sc1-c1ccc(S(=O)(=O)N[C@@H](C)C(F)(F)F)c(Cl)c1Cl` [Example 1, (S)-3-(5-(5-(2,3-Dichloro-4-(N-(1,1,1-trifluoropropan-2-yl)sulfamoyl)phenyl)-4-(diethylcarbamoyl)thiazol-2-yl)-1,3,4-oxadiazol-2-yl)-2,2-dimethylpropanoic acid], the Kd in assay [1] is 0.0013 µM. Besides, on full-length human RORγt [2], the IC50 was 1.1 µM and the inhibition at 6 µM was 89%. For the same compound, the IC50 in assay [3] was 0.054 µM.
For `C[C@H]1CCCN1C(=O)c1nc(-c2nnc(C(C)(C)O)n2C)sc1-c1ccc(C(O)(C(F)(F)F)C(F)(F)F)cc1C(F)(F)F` [Example 22, (S)-(5-(4-(1,1,1,3,3,3-Hexafluoro-2-hydroxypropan-2-yl)-2-(trifluoromethyl)phenyl)-2-(5-(2-hydroxypropan-2-yl)-4-methyl-4H-1,2,4-triazol-3-yl)thiazol-4-yl)(2-methylpyrrolidin-1-yl)methanone], at full-length human RORγt [4], the IC50 stood at 0.083 µM and the inhibition at 6 µM was 87%. In assay [1], the Kd is 0.005 µM. Moreover, on full-length human RORγt [2], the IC50 was 0.11 µM and the inhibition at 2 µM was determined as 99%.
For `C[C@H](NS(=O)(=O)c1ccc(-c2sc(-c3nnc(C(C)(C)O)n3C3CC3)nc2C(=O)N2CCC(F)(F)CC2)c(Cl)c1Cl)C(F)(F)F` [Example 23, (S)-2,3-Dichloro-4-(2-(4-cyclopropyl-5-(2-hydroxypropan-2-yl)-4H-1,2,4-triazol-3-yl)-4-(4,4-difluoropiperidine-1-carbonyl)thiazol-5-yl)-N-(1,1,1-trifluoropropan-2-yl)benzenesulfonamide], at full-length human RORγt [4], the IC50 amounted to 0.04 µM and the inhibition at 6 µM worked out at 109%. For the same compound, the Kd in assay [1] is 0.0031 µM.
Regarding `C[C@H]1CCCN1C(=O)c1nc(-c2nnc(C(C)(C)O)o2)sc1-c1ccc(C(O)(C(F)(F)F)C(F)(F)F)cc1C(F)(F)F` [Example 7/1, (S)-(5-(4-(1,1,1,3,3,3-hexafluoro-2-hydroxypropan-2-yl)-2-(trifluoromethyl)phenyl)-2-(5-(2-hydroxypropan-2-yl)-1,3,4-oxadiazol-2-yl)thiazol-4-yl)(2-methylpyrrolidin-1-yl)methanone], the IC50 came to 0.006 µM at full-length human RORγt [4], 0.038 µM on full-length human RORγt [2] and 0.064 µM in assay [3]. In addition, the inhibition at 2 µM on full-length human RORγt [4] (read-out: RORγt (FL) Reporter Assay B or C, % inhibition (* at 2 μM), 2 μM compound concentration (footnote *)) was 108%; at full-length human RORγt [2] it was 102%. Besides, in assay [1], the Kd is 0.001 µM.
Turning to `C[C@H](NS(=O)(=O)c1ccc(-c2sc(-c3cc(CC(C)(C)C(=O)O)on3)nc2C(=O)N2CC(F)(F)C[C@@H]2C)c(C(F)F)c1F)C(F)(F)F` [Example 18/1, 3-(3-(4-((S)-4,4-Difluoro-2-methylpyrrolidine-1-carbonyl)-5-(2-(difluoromethyl)-3-fluoro-4-(N—((S)-1,1,1-trifluoropropan-2-yl)sulfamoyl)phenyl)thiazol-2-yl)isoxazol-5-yl)-2,2-dimethylpropanoic acid], the Kd in assay [1] was 0.0056 µM. Moreover, at full-length human RORγt [2], the half-maximal inhibitory concentration (IC50) stood at 0.17 µM and the inhibition at 6 µM turned out to be 104%. In assay [3], the concentration for half-maximal inhibition (IC50) was found to be 0.47 µM.
The corresponding values for `C[C@H](NS(=O)(=O)c1ccc(-c2sc(-c3nnc(C(C)(C)O)o3)nc2C(=O)N2CCOC[C@@H]2C)c(Cl)c1Cl)C(F)(F)F` [Example 6/9, 2,3-Dichloro-4-(2-(5-(2-hydroxypropan-2-yl)-1,3,4-oxadiazol-2-yl)-4-((S)-3-methylmorpholine-4-carbonyl)thiazol-5-yl)-N—((S)-1,1,1-trifluoropropan-2-yl)benzenesulfonamide] are 0.0065 µM, 0.11 µM, 108% and 0.1 µM.
Turning to `CC(C)(O)c1nnc(-c2nc(C(=O)N3CCC(F)(F)CC3)c(-c3ccc(C(O)C4(C(F)(F)F)CC4)c(Cl)c3Cl)s2)o1` (stereo not drawn) [Example 8/4, (5-(2,3-Dichloro-4-(hydroxy(1-(trifluoromethyl)cyclopropyl)methyl)phenyl)-2-(5-(2-hydroxypropan-2-yl)-1,3,4-oxadiazol-2-yl)thiazol-4-yl)(4,4-difluoropiperidin-1-yl)methanone], in assay [1], the Kd is 0.012 µM. Also, on full-length human RORγt [2], the IC50 is 0.32 µM and the inhibition at 6 µM stood at 47%. For the same compound, in assay [3], the IC50 was about 6 µM.

By Kd is commonly meant the equilibrium constant for the complex coming apart. By IC50 is commonly meant the midpoint of a concentration-inhibition curve. The inhibition is the change of the read-out against control, counted positive when it falls.
